What is called IC50 is the midpoint of a concentration-inhibition curve. One may read the CC50 as the concentration at which the toxic effect on the cells reaches its halfway point. Low values mean greater toxicity to the cells, high ones lower toxicity to the cells. Usually melting point stands for the temperature of the solid-liquid transition.

In data set [1] the test system is human coronavirus 229E. In words: Cytopathic effect (CPE) inhibition assay, crystal violet method. The format is cell-based. The note with it: read-out: IC50 (229E). Here is the method:
The anti-coronaviral activity of the new compounds was assessed using a cytopathic effect (CPE) inhibition assay against human coronavirus 229E. Ribavirin (well-established antiviral agent) was used as standard in this assay.
In general terms: Protection from cytopathic effect is a common read-out in antiviral testing.

The nature of data set [2]: Cytotoxicity on target cells in the antiviral assay (crystal violet). As for the experimental part: The results were analyzed using GraphPad Prism 5.0, and cytotoxicity was expressed as IC50 for three individual experiments. In the assay, ribavirin was used as a positive control, and DMSO was used as a negative control.
For data set [3], the target named is T1, CDK9 (Homo sapiens, UniProt P50750).
T1 construct: purchased BPS Biosciences (San Diego, CA, USA) 79628
T1 sequence (P50750 whole entry): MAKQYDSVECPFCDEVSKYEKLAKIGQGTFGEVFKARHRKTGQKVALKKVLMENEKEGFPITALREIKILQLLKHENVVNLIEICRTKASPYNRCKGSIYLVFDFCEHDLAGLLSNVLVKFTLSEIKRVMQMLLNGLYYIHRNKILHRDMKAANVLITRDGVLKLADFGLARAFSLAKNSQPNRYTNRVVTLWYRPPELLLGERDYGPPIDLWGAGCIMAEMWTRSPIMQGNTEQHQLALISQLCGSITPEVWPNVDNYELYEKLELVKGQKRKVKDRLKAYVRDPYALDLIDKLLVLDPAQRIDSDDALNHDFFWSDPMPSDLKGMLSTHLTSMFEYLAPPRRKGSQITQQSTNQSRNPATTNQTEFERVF
T1 sequence (O60563 whole entry partner): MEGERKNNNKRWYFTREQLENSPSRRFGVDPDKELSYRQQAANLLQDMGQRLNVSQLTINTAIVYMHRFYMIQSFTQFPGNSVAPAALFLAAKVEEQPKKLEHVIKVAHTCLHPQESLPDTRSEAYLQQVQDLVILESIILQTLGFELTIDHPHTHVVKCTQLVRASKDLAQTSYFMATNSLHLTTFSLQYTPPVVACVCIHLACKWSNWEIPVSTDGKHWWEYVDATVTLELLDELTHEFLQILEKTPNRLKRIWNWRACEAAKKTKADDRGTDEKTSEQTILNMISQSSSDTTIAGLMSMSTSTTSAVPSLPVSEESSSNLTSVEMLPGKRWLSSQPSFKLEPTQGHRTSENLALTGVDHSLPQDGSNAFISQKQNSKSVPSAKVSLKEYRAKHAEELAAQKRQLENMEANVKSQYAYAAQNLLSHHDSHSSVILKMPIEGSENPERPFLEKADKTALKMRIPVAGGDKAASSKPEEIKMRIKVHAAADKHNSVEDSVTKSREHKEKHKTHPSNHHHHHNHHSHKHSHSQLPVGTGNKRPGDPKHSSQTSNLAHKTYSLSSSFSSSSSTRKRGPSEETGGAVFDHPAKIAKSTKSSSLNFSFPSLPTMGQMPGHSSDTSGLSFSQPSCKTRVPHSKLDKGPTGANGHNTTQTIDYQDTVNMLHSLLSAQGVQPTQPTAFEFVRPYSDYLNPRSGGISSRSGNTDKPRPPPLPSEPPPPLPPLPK
In words: biochemical. The note with it: biochemical assay; mean ± standard deviation of three individual experiments; read-out: CDK9 Inhibitory Activity IC50. As for the experimental part:
In this study, all the newly synthesized compounds were assessed against CDK9 in a biochemical assay, and dinaciclib was used as a standard compound.
The luminescence was measured using a microplate reader. The results were analyzed using GraphPad Prism 5.0, and the kinase inhibitory activity was expressed as IC50 for three individual experiments. In the assay, dinaciclib was used as a positive control, and DMSO was used as negative control.

In data set [4] the test system is MCF7, HCT116 and K652 cell lines. The data set is described as follows: MTT cytotoxicity assay, average of three cell lines. The class given is cell-based. Particulars: read-out: average IC50 of three cell lines. Here is the method:
(§1) The in vitro cytotoxicity of our compounds was determined using MTT assay. […] The results were analyzed using GraphPad Prism 5.0, and cytotoxicity was expressed as IC50 for three individual experiments.
In general terms: Tetrazolium assays rely on reduction of a dye to a coloured formazan, in cell work by metabolically active cells.

For data set [5], the system named is normal cells FHC. The data set is described as follows: cells. The note with it: for average selectivity over three cancer cells: normal cells FHC vs MCF7, HCT116, K652; for IC50: read-out: FHC IC50. As for the experimental part:
as §1

Data set [6] deals with chronic myelogenous leukaemia. In words: cells. Particulars: K652, 48 h, read-out: IC50 K652. Here is the method: as §1
In data set [7] the test system is colorectal cancer (HCT116). In words: cells. Particulars: Homo sapiens, HCT-116, 48 h, read-out: IC50 HCT116. Here is the method: as §1
Data set [8] has as its system breast cancer (MCF7). The data set is described as follows: MTT cytotoxicity assay, MCF7. The class given is cell-based. The note with it: Homo sapiens, MCF7, 48 h, read-out: IC50 MCF7. As for the experimental part: as §1
Data set [9] addresses T1, CDK9. The note with it: identified by virtual screening from natural resources; cited from earlier work.

Molecules are shown by their SMILES. Where two headings read alike, the source gives them in different places.

Regarding `CC(C)(C)Nc1c(-c2ccncc2)nc2cnccn12` [Compound 3a, N-(Tert-butyl)-2-(pyridin-4-yl)imidazo[1,2-a]pyrazin-3-amine], the 50% inhibitory concentration (IC50) was determined as 394 µM in data set [1]; 0.26 ± 0.004 µM in data set [3]; 17.7 µM in data set [4]; 196 ± 2.79 µM in data set [5]; 46 ± 0.67 µM in data set [6]; 2.69 ± 0.04 µM in data set [7]. For the same molecule, the IC50 in data set [8] was determined as 4.3 ± 0.5 µM. The CC50 in data set [2] is 940 µM. Moreover, the “average selectivity over three cancer cells” value (from here on “average selectivity”) in [5] is 41 fold.

Consider `c1ccc(-c2nc3cnccn3c2NC2CCCCC2)cc1` [Compound 1b, N-Cyclohexyl-2-phenylimidazo[1,2-a]pyrazin-3-amine], for which the half-maximal inhibitory concentration (IC50) in data set [1] worked out at 146 µM; in data set [3] it was 0.25 ± 0.004 µM; in data set [4], 18.2 µM; in data set [5], 123 ± 19.1 µM; in data set [6] it was 50.3 ± 0.8 µM; in data set [7] it was 1.43 ± 0.02 µM. In data set [8], the IC50 came out at 3.01 ± 0.04 µM. Also, in data set [2], the CC50 is 299 µM. Further, in [5], the “average selectivity” value turned out to be 43 fold.

Regarding `c1ccc(CNc2c(-c3ccsc3)nc3cnccn23)cc1` [Compound 4c, N-Benzyl-2-(thiophen-3-yl)imidazo[1,2-a]pyrazin-3-amine], the IC50 in [3] amounted to 0.71 ± 0.012 µM; in data set [6], 69.2 ± 3.89 µM; in [7], 80.6 ± 1.26 µM; in [8] it was 55.8 ± 0.8 µM.

Take `COc1ccc(Nc2c(-c3ccsc3)nc3cnccn23)cc1` [Compound 4d, N-(4-Methoxyphenyl)-2-(thiophen-3-yl)imidazo[1,2-a]pyrazin-3-amine]: the IC50 turned out to be 3.16 ± 0.058 µM in data set [3], 87.2 ± 1.53 µM in data set [6], 115 ± 1.93 µM in [7] and 141 ± 2.13 µM in [8].

Regarding `c1cc(-c2nc3cnccn3c2NC2CCCCC2)ccn1` [Compound 3b, N-Cyclohexyl-2-(pyridin-4-yl)imidazo[1,2-a]pyrazin-3-amine], the IC50 came out at 57 µM in data set [1]; 0.41 ± 0.007 µM in [3]; 67.8 ± 1.08 µM in data set [6]; 8.96 ± 0.14 µM in data set [7]; 31.7 ± 0.44 µM in data set [8]. Besides, in data set [2], it took 407 µM to reach half-maximal cytotoxicity (CC50).

For the molecule `CC(C)(C)Nc1c(-c2ccccc2)nc2cnccn12` [Compound 1a, N-(Tert-butyl)-2-phenylimidazo[1,2-a]pyrazin-3-amine], the 50% inhibitory concentration (IC50) amounted to 1.67 ± 0.025 µM in [3]; 437 µM in [4]; 310 ± 4.49 µM in [6]; 597 ± 8.25 µM in [7]; 405 ± 5.05 µM in data set [8].

Regarding `COc1ccc(Nc2c(-c3ccncc3)nc3cnccn23)cc1` [Compound 3d, N-(4-Methoxyphenyl)-2-(pyridin-4-yl)imidazo[1,2-a]pyrazin-3-amine], the half-inhibitory concentration (IC50) in data set [3] is 0.8 ± 0.014 µM; in [6], 46.6 ± 0.48 µM; in [7], 27.9 ± 1.88 µM; in data set [8] it was 118 ± 1.17 µM.

In the case of `Oc1ccc(-c2nc3cnccn3c2NCc2cccs2)cc1O` [Compound 10], the concentration for half-maximal inhibition (IC50) in [9] is 5.12 µM.

On to `COc1ccc(Nc2c(-c3ccccc3)nc3cnccn23)cc1` [Compound 1d, N-(4-Methoxyphenyl)-2-phenylimidazo[1,2-a]pyrazin-3-amine], for which the 50% inhibitory concentration (IC50) in data set [3] is 1.04 ± 0.019 µM; in data set [6], 77.4 ± 1.34 µM; in [7], 75.2 ± 1.24 µM; in data set [8], 244 ± 3.62 µM.

As to `CC(C)(C)Nc1c(-c2ccsc2)nc2cnccn12` [Compound 4a, N-(Tert-butyl)-2-(thiophen-3-yl)imidazo[1,2-a]pyrazin-3-amine], the IC50 in data set [3] was found to be 0.73 ± 0.011 µM; in data set [5], 76.1 ± 1.11 µM; in data set [6], 12.77 ± 0.06 µM; in data set [7], 61.31 ± 0.12 µM; in data set [8], 25.4 ± 0.32 µM. For the same molecule, the “average selectivity” value in [5] worked out at 3.5 fold.

With `c1cn2c(NC3CCCCC3)c(-c3ccsc3)nc2cn1` [Compound 4b, N-Cyclohexyl-2-(thiophen-3-yl)imidazo[1,2-a]pyrazin-3-amine], the melting point fell in the range of 170 to 172 °C. For the same molecule, the half-inhibitory concentration (IC50) in data set [3] was found to be 1.32 ± 0.006 µM. In data set [6], the IC50 came out at 46.6 ± 0.76 µM. Moreover, the half-inhibitory concentration (IC50) in data set [7] amounted to 27.9 ± 0.43 µM. In addition, the IC50 in data set [8] is 181 ± 2.63 µM.

Take `NC(=O)c1ncn([C@@H]2O[C@H](CO)[C@@H](O)[C@H]2O)n1` [Ribavirin, reference compound]: in data set [1], the IC50 turned out to be 114 µM. The CC50 in data set [2] is 160 µM.

With `c1ccc(CNc2c(-c3ccccc3)nc3cnccn23)cc1` [Compound 1c, N-Benzyl-2-phenylimidazo[1,2-a]pyrazin-3-amine], the IC50 in data set [3] stood at 1.01 ± 0.017 µM; in [6] it was 88.6 ± 8.25 µM; in [7], 59.3 ± 5.05 µM; in data set [8], 99 ± 1.39 µM.

In the case of `Oc1ccc(-c2nc3cnccn3c2NC2CCCCC2)cc1O` [Compound 2b, 4-(3-(Cyclohexylamino)imidazo[1,2-a]pyrazin-2-yl)benzene-1,2-diol], the half-maximal inhibitory concentration (IC50) in data set [3] is 0.89 ± 0.016 µM; in data set [6], 54.2 ± 0.96 µM; in data set [7], 105 ± 1.78 µM; in [8] it was 119 ± 1.82 µM.

`CN[C@@H]1C[C@H]2O[C@@](C)([C@@H]1OC)n1c3ccccc3c3c4c(c5c6ccccc6n2c5c31)C(=O)NC4` [Staurosporine, reference compound]: the 50% inhibitory concentration (IC50) in data set [8] amounted to 18.4 ± 0.4 µM.

Molecule `COc1ccc(Nc2c(-c3ccc(O)c(O)c3)nc3cnccn23)cc1` [Compound 2d, 4-(3-((4-Methoxyphenyl)amino)imidazo[1,2-a]pyrazin-2-yl)benzene-1,2-diol] yielded a melting point of 150 to 152 °C. The IC50 in data set [3] amounted to 2.03 ± 0.04 µM. In addition, the concentration for half-maximal inhibition (IC50) in [4] worked out at 126 µM. Further, in data set [6], the IC50 came out at 136 ± 2.59 µM. For the same molecule, the half-inhibitory concentration (IC50) in data set [7] is 162 ± 2.41 µM. Further, the IC50 in data set [8] came to 80.4 ± 1.31 µM.

Regarding `Oc1ccc(-c2nc3cnccn3c2NCc2ccccc2)cc1O` [Compound 2c, 4-(3-(Benzylamino)imidazo[1,2-a]pyrazin-2-yl)benzene-1,2-diol], the IC50 in [3] stood at 0.31 ± 0.006 µM; in data set [6], 88.6 ± 1.09 µM; in [7], 59.9 ± 1.04 µM; in [8], 39.7 ± 0.62 µM.

`CC(C)(C)Nc1c(-c2ccc(O)c(O)c2)nc2cnccn12` [Compound 2a, 4-(3-(Tert-butylamino)imidazo[1,2-a]pyrazin-2-yl)benzene-1,2-diol] showed a melting point of 270 to 272 °C. The half-maximal inhibitory concentration (IC50) in data set [3] amounted to 1.14 ± 0.019 µM. The IC50 in [6] turned out to be 22.8 ± 0.37 µM. In addition, the IC50 in [7] came to 35.9 ± 0.56 µM. In addition, in data set [8], the half-inhibitory concentration (IC50) was 76.8 ± 1.08 µM.

In the case of `c1ccc(CNc2c(-c3ccncc3)nc3cnccn23)cc1` [Compound 3c, N-Benzyl-2-(pyridin-4-yl)imidazo[1,2-a]pyrazin-3-amine], the IC50 in data set [1] worked out at 379 µM; in data set [3], 0.16 ± 0.003 µM; in [4] it was 6.66 µM; in data set [5] it was 97.2 ± 1.58 µM; in [6], 4.45 ± 0.06 µM; in [7], 7.96 ± 0.12 µM. For the same molecule, the concentration for half-maximal inhibition (IC50) in data set [8] came to 8.59 ± 0.12 µM. Moreover, the CC50 in data set [2] was determined as 472 µM. The “average selectivity” value in data set [5] was 15 fold.

These data come from paper PMC9319549, “Synthesis and Biological Evaluation of Imadazo[1,2-a]pyrazines as Anticancer and Antiviral Agents through Inhibition of CDK9 and Human Coronavirus” (Pharmaceuticals, 2022).
